# Results from PMC9106868 (European journal of medicinal chemistry, 2022).
# pIC50: −log10 of the molar value.
# Legend:
# NMDAR = conditions: cited from earlier work; for V0: previously reported values, ref [28],[63],[68],[80]–[81]; for pIC50: therapeutically beneficial NMDAR antagonists, ref [28],[61]–[68]
# GluN1/2A NMDARs = GluN1/2A NMDARs (Rattus norvegicus, UniProt P35439+Q00959); assay type: cell-based; conditions: after removal of 10 μM blocker
# 5XFAD mice hippocampus = test: Western blot of hippocampal proteins after treatment; assay type: in vivo, mouse; conditions: 5 mg / kg
# Caco-2 cells = test: Caco-2 cell permeability; assay type: in vitro ADME; conditions: 10 μM in HBSS, 1 hour, 37 °C
# GluN1/2A NMDARs, sequence (Q00959 23-1464, other chains not shown): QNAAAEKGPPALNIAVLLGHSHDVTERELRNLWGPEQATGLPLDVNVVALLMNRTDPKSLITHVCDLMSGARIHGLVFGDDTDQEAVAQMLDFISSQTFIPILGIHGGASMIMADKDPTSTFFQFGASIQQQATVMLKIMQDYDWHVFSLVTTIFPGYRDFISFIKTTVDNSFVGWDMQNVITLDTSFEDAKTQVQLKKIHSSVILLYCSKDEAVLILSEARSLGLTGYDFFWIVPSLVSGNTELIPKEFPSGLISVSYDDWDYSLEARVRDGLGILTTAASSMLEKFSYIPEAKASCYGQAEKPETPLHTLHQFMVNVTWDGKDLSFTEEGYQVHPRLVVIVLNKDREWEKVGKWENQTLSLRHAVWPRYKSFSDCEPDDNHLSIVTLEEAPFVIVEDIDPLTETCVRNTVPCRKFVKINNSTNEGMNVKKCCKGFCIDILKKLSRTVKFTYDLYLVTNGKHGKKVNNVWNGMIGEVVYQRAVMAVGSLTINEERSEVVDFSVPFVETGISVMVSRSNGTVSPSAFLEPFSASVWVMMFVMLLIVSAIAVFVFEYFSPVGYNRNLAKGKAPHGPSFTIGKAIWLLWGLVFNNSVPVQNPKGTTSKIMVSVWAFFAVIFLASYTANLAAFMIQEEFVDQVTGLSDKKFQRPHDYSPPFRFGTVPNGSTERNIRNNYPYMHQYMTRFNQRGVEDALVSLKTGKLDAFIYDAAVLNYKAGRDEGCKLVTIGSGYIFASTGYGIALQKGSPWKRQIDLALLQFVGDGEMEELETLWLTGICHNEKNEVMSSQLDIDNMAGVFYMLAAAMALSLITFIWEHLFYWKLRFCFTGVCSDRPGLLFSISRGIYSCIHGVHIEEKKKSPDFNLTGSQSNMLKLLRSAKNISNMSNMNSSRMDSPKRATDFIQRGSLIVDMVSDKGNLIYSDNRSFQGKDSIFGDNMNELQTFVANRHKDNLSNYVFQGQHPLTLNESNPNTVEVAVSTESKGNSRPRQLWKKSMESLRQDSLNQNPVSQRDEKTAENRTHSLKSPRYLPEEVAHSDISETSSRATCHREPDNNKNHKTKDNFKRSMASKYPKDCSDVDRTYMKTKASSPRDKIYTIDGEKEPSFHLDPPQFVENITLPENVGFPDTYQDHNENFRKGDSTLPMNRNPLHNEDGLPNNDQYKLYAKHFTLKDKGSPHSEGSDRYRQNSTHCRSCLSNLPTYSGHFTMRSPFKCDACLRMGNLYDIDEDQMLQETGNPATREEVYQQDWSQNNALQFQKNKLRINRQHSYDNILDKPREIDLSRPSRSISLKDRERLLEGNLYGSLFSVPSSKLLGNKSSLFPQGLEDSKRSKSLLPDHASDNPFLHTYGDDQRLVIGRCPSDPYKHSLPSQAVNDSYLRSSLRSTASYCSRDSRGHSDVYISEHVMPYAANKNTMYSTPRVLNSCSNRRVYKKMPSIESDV
molecule,measurement,setting,value
"CC12CC3CC(C)(C1)CC(N)(C3)C2 [Memantine, memantine]",V0,NMDAR,26 – 30 mV
same,pIC50,NMDAR,5.70 to 6.00
same,"Unblocking kinetics, τweighted",GluN1/2A NMDARs,6.4 ± 1.4 s
same,Calbindin D-28K protein levels,5XFAD mice hippocampus,reverts calbindin D-28K protein levels to WT levels
same,PSD95 expression,5XFAD mice hippocampus,rescues expression of postsynaptic density protein (PSD) 95
same,p-CREB protein levels in the nucleus,5XFAD mice hippocampus; vs untreated 5XFAD,significantly increased p-CREB protein levels in the nucleus
NC12CC3CC(CC(C3)C1)C2 [amantadine],pIC50,NMDAR,4.12 to 4.40
CNC1(c2ccccc2Cl)CCCCC1=O (stereo not drawn) [ketamine],V0,NMDAR,26 – 30 mV
Lucifer yellow,Caco-2 Papp (monolayer integrity),Caco-2 cells,≤ 10 nm/s
